Experimental data published in the Kinase Knowledgebase extract (Sharma et al. 2016).

Assays:
PIK3CD (Human) = PIK3CD (Human) (UniProt O00329); assay: Assessment of PIK3CD Kinase Activity
PIK3CA (human) = PIK3CA (human) (UniProt P42336); assay: Assessment of PIK3CA Kinase Activity
PIK3CB (Human) = PIK3CB (Human) (UniProt P42338); assay: Assessment of PIK3CB Kinase Activity
Chain of PIK3CB (Human) (P42338 whole entry, looked up): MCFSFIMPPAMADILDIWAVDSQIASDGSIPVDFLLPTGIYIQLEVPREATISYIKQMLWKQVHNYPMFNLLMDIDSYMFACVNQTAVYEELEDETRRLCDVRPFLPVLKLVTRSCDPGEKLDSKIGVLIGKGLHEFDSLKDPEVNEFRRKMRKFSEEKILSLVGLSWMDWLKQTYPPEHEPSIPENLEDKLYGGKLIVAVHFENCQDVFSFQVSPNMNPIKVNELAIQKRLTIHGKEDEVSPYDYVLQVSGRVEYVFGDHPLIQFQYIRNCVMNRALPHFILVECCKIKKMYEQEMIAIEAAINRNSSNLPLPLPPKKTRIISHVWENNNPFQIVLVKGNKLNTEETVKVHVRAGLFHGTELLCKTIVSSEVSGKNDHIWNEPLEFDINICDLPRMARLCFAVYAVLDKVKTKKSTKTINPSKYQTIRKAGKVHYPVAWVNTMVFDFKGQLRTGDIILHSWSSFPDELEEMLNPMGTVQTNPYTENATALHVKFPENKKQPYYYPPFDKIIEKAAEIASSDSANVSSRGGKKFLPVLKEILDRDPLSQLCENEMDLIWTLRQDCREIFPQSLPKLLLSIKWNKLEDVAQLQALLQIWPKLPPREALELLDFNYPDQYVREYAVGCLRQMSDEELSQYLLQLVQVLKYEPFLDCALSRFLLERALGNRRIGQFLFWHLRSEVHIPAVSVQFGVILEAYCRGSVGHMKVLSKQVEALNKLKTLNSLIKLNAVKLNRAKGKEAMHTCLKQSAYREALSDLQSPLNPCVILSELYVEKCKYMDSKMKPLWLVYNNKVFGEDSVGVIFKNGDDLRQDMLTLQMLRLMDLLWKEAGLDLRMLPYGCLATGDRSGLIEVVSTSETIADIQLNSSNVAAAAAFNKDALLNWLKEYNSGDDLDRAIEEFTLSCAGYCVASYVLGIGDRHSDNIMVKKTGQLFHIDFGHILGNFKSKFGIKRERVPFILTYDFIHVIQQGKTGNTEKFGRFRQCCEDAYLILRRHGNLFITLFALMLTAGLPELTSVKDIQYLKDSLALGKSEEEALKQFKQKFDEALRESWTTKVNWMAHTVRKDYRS

Chain of PIK3CD (Human) (O00329 whole entry, looked up): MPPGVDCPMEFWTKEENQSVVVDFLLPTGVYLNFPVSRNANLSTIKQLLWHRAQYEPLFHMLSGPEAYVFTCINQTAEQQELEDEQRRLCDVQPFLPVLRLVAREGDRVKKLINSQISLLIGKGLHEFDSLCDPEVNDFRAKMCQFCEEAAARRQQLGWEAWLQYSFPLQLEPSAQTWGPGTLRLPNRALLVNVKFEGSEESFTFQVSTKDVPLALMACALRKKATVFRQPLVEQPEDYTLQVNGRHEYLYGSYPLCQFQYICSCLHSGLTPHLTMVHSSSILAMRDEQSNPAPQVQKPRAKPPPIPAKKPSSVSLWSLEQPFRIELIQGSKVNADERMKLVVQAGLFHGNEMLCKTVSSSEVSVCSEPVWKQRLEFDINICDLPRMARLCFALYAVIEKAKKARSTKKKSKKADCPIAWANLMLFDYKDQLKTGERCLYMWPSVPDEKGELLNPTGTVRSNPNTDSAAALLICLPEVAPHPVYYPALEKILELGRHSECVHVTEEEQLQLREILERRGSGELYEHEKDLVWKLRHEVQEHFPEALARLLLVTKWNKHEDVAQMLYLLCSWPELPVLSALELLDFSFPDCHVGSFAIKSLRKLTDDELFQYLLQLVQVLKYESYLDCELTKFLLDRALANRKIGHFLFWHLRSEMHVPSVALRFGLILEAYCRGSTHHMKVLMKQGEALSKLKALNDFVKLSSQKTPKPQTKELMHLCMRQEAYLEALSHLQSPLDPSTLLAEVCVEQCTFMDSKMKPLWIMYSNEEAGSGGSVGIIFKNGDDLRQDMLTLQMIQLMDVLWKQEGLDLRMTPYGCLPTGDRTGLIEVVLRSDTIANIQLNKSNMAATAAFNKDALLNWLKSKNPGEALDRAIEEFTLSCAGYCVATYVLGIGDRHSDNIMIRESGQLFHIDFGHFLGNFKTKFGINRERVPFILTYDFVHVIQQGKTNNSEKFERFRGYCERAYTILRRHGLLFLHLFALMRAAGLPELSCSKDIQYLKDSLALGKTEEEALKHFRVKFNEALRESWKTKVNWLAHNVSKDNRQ
Chain of PIK3CA (human) (P42336 whole entry, looked up): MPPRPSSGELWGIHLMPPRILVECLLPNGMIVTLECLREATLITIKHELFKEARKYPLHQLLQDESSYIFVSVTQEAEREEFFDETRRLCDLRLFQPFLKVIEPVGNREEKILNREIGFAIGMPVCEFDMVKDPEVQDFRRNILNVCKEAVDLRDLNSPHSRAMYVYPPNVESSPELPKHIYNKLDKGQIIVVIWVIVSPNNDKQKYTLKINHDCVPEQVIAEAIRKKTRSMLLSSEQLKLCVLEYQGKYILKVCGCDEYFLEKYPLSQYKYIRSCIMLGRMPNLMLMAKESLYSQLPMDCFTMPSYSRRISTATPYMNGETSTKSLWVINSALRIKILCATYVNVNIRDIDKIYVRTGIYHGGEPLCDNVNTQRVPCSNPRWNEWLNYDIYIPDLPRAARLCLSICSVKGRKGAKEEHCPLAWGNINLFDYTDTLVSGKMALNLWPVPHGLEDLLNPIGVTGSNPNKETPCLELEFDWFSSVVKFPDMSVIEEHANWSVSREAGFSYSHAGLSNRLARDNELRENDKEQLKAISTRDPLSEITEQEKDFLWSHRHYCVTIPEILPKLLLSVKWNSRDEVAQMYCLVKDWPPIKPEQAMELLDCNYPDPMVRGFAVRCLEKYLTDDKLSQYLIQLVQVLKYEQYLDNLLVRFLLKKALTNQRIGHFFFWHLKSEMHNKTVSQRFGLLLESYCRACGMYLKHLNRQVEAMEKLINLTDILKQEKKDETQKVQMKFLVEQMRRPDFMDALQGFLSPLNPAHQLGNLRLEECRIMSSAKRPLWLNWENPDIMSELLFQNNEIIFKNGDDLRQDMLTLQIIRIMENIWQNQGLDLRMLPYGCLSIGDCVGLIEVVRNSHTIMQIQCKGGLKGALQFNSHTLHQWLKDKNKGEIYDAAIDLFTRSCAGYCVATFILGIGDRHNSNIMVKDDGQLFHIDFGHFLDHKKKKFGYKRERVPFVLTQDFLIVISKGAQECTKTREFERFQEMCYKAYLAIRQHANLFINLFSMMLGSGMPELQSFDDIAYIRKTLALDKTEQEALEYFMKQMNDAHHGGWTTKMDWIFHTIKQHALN

| Compound | IC50 (PIK3CD (Human)) | IC50 (PIK3CA (human)) | IC50 (PIK3CB (Human)) |
| --- | --- | --- | --- |
| CCn1cc(-n2c(=O)n(C)c3cnc4ccc(-c5ccc(-n6cccn6)cc5)cc4c32)c(C)n1 | 75 nM | 27 nM |  |
| CCNC(=O)c1cc(-c2ccc3ncc4c(c3c2)n(-c2c(C)nn(C)c2C)c(=O)n4C)cnc1NC | 39 nM | 81 nM | 603 nM |
| CCNc1cc(-c2ccc3ncc4c(c3c2)n(-c2c(C)noc2C)c(=O)n4C)cnc1Cl | 22 nM | 139 nM | 101 nM |
| CCc1ncc(-c2ccc3ncc4c(c3c2)n(-c2cn(C)nc2C)c(=O)n4C)cc1OC(C)C | 18 nM | 41 nM | 73 nM |
| CCn1cc(-n2c(=O)n(C)c3cnc4ccc(-c5cnc(C)c(OC(C)C)c5)cc4c32)c(C)n1 | 5 nM | 4 nM | 30 nM |

Now from value to compound:

| IC50 (PIK3CD (Human)) | IC50 (PIK3CA (human)) | IC50 (PIK3CB (Human)) | Compound |
| --- | --- | --- | --- |
| 3 nM | 9 nM | 7 nM | COCc1cc(-c2ccc3ncc4c(c3c2)n(-c2cn(C)nc2Cl)c(=O)n4C)cnc1N |
| 5 nM | 15 nM | 24 nM | COCc1ncc(-c2ccc3ncc4c(c3c2)n(-c2cn(C)nc2Cl)c(=O)n4C)cc1OC |
| 5 nM | 8 nM | 5 nM | Cn1cc(-n2c(=O)n(C)c3cnc4ccc(-c5cncc(C(C)(C)O)c5)cc4c32)c(Cl)n1 |
